Data taken from article PMC7898615 (Chemistry (Weinheim an Der Bergstrasse, Germany), 2020).

target: T1, tryptophan synthase (TS) complex, TrpA:TrpB (Salmonella enterica, UniProt P0A2K1); assay: coupled VioA/HRP assay of Trp formation, […] nm, global fit; format: biochemical
T1 sequence (P0A2K1 1-397): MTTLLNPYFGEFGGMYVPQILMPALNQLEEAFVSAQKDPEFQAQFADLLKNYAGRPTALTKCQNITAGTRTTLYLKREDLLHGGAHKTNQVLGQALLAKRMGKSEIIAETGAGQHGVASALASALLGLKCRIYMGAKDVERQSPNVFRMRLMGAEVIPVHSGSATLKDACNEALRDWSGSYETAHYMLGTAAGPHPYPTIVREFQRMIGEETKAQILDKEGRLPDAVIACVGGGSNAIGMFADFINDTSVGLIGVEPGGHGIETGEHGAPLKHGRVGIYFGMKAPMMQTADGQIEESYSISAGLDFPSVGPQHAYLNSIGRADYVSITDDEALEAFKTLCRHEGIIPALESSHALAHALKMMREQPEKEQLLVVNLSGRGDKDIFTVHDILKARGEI
T1 sequence (P00929 1-268 partner): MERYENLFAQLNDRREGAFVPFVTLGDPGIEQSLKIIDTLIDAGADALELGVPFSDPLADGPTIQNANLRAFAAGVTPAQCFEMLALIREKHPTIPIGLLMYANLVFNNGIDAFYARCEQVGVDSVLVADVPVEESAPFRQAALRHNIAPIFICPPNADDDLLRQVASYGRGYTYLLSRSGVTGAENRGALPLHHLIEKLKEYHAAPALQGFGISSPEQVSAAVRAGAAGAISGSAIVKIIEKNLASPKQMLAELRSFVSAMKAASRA

Row | SMILES | Ki
1 | O=C(NCCCCOP(=O)(O)O)c1ccc(/N=N\c2ccccc2)cc1 [4d, 4 d (Z isomer)] | > 4000 µM
2 | O=C(NCCCCOP(=O)(O)O)c1ccc(/N=N/c2ccccc2)cc1 [4d, (E)‐4‐(4‐(phenyldiazenyl)benzamido)butyl dihydrogen phosphate] | 640 ± 80 µM
3 | O=C(NCCCCCOP(=O)(O)O)c1ccc(/N=N\c2ccccc2)cc1 [4e, 4 e (Z isomer)] | 930 ± 420 µM
4 | O=C(NCCCCCOP(=O)(O)O)c1ccc(/N=N/c2ccccc2)cc1 [4e, (E)‐5‐(4‐(phenyldiazenyl)benzamido)pentyl dihydrogen phosphate] | 180 ± 40 µM
5 | O=C(NCCCCCCOP(=O)(O)O)c1ccc(/N=N\c2ccccc2)cc1 [4f, 4 f (Z isomer)] | 100 ± 10 µM
6 | O=C(NCCCCCCOP(=O)(O)O)c1ccc(/N=N/c2ccccc2)cc1 [4f, (E)‐6‐(4‐(phenyldiazenyl)benzamido)hexyl dihydrogenphosphate] | 50 µM
